One experiment concerns the target T1, HiBit-BRM fusion protein (Homo sapiens, UniProt P51531).
T1 construct: expressed in transfected cells
In words: HiBiT-BRM cell-based degradation assay (Nano-Glo HiBiT Lytic Detection, 24 h). Conditions: stable HeLa cell line expressing HiBiT-BRM; for DC50: read-out: BRM HiBit Degradation IC50. Summed up:
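A stable HeLa line expressing HiBiT-BRM was treated for 24 h with compound in a 10-point, 3-fold series (30 μM final top dose). Remaining HiBiT-BRM was read by lytic LgBiT complementation luminescence. % degradation was normalised to DMSO (high control) and 2 μM reference BRM/BRG1 degrader (low control).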
Background: HiBiT is a short tag that completes a luciferase, so light tracks the accessible tagged protein.

Experiment [1] has as its target T2, HiBit-BRG1 fusion protein (Homo sapiens, UniProt P51532).
T2 construct: expressed in transfected cells
Put plainly: HiBiT-BRG1 cell-based degradation assay (Nano-Glo HiBiT Lytic Detection, 24 h). The note with it: stable HeLa cell line expressing HiBit-BRG1 and LgBit; for Dmax: read-out: BRG1 HiBit Degradation Maximum (%); for DC50: read-out: BRMG1 HiBit Degradation IC50. Summed up:
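HeLa cells stably expressing HiBit-BRG1 and LgBit, treated 24 h with 3-fold dilutions (10 points, duplicate, 30 μM final top dose). Luminescence read after Nano-Glo HiBiT lytic reagent; % degradation scaled between DMSO (high) and 2 μM reference BRM/BRG1 degrader (low control).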

Experimental findings from patent US20250304596A1, “PYRAZINE DERIVATIVES AND USES THEREOF” (FOGHORN THERAPEUTICS INC., priority 2022, published 2025) are described below.

T2 sequence (P51532 whole entry, the tested form may be a part): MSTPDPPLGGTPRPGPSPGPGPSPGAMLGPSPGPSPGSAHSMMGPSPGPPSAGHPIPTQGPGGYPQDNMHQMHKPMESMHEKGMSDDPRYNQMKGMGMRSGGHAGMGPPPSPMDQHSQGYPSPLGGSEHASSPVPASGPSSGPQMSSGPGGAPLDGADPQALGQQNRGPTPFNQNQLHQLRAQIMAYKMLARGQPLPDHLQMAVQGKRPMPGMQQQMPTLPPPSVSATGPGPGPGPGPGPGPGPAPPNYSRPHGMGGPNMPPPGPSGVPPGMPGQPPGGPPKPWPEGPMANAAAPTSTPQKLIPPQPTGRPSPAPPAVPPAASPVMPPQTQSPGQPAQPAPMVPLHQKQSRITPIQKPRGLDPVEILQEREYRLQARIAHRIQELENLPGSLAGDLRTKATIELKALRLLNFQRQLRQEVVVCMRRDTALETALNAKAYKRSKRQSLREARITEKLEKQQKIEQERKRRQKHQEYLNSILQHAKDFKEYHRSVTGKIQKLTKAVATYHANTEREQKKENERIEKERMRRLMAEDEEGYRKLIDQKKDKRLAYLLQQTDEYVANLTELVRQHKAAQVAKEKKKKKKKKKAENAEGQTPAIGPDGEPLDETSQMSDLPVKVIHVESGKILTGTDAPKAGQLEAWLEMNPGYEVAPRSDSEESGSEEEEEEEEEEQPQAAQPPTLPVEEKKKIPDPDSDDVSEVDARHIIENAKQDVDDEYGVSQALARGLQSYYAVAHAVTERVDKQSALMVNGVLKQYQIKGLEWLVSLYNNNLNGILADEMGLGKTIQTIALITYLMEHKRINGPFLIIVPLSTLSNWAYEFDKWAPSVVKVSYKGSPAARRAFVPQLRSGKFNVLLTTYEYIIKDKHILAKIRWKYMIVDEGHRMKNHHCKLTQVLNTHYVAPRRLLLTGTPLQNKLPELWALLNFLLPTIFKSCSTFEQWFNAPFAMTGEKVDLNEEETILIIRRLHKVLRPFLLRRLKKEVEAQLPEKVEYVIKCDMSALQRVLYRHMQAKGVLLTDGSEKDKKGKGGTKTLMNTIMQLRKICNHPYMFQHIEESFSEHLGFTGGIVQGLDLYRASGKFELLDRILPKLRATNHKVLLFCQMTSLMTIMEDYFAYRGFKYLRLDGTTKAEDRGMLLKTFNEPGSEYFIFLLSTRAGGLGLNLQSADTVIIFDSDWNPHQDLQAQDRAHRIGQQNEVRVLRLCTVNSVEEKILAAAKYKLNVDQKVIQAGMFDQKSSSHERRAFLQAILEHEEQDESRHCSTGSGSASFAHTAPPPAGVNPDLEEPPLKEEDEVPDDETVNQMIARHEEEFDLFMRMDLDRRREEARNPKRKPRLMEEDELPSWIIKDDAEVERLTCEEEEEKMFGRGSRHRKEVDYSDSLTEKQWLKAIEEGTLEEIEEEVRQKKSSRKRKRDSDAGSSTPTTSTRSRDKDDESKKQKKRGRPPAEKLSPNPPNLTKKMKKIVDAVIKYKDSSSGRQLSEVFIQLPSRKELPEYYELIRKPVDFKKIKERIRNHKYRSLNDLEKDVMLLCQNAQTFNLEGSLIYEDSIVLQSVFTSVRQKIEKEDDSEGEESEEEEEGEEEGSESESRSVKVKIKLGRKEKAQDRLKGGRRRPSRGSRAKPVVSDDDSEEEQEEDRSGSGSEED
T1 sequence (P51531 whole entry, the tested form may be a part): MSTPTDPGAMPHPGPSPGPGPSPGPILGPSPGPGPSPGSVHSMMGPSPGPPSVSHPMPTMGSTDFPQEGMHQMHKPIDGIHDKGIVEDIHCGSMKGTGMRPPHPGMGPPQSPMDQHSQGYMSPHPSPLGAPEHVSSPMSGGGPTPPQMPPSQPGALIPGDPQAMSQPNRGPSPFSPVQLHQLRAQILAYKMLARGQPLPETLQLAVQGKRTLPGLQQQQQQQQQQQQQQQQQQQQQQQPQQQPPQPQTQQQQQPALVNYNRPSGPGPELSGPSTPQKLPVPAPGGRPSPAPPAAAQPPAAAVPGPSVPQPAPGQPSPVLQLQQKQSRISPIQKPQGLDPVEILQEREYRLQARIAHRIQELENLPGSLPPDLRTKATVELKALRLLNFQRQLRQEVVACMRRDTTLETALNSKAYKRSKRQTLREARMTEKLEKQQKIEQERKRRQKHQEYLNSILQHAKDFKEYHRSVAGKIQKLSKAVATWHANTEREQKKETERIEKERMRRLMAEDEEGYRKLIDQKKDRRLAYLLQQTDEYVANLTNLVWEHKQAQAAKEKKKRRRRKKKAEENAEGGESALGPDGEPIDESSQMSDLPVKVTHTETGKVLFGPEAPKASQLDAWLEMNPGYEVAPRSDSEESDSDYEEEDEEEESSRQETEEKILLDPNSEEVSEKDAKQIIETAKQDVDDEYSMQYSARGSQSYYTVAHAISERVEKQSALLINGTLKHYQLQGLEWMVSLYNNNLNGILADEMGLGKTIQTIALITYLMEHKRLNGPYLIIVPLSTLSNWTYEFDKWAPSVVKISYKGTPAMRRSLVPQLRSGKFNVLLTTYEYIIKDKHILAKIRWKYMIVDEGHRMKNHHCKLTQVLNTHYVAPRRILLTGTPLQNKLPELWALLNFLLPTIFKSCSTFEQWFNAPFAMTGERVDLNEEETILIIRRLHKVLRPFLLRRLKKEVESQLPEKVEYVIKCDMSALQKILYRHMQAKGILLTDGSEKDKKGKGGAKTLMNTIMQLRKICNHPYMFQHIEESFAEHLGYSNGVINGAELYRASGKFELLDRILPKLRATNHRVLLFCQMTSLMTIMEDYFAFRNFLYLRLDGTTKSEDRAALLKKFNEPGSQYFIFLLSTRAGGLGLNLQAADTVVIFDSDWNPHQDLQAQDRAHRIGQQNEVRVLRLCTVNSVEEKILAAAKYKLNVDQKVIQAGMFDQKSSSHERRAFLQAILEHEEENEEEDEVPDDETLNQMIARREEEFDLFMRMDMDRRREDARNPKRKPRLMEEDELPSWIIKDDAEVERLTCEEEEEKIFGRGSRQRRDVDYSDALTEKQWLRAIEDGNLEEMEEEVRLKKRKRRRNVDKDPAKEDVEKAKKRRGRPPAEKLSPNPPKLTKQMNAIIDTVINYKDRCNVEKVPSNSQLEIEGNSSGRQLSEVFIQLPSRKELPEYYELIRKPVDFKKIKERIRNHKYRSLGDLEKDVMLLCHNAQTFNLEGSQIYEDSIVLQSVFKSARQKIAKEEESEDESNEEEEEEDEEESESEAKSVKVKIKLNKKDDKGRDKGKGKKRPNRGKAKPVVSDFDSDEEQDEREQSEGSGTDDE

On to `Cc1ncsc1-c1ccc([C@H](C)NC(=O)[C@@H]2C[C@@H](O)CN2C(=O)[C@@H](c2cc(N3CC[C@H](c4sc5nnc(-c6ccccc6O)cc5c4C)C3)no2)C(C)C)cc1` [Compound 78, (2S,4R)-4-hydroxy-1-((R)-2-(3-((S)-3-(3-(2-hydroxyphenyl)-5-methylthieno[2,3-c]pyridazin-6-yl)pyrrolidin-1-yl)isoxazol-5-yl)-3-methylbutanoyl)-N-((S)-1-(4-(4-methylthiazol-5-yl)phenyl)ethyl)pyrrolidine-2-carboxamide], for which, on HiBit-BRM fusion protein, the “BRM HiBit Degradation Maximum (%)” value was “A (“A” indicates maximum degradation ≥75%)” and the DC50 was less than 10 nM. Besides, in experiment [1], the Dmax is greater than 50% and the DC50 was greater than 10 nM.
With `Cc1ncsc1-c1ccc([C@H](C)NC(=O)[C@@H]2C[C@@H](O)CN2C(=O)[C@@H](c2cc(N3CC4(C3)CN(c3sc5nnc(-c6ccccc6O)cc5c3C)C4)no2)C(C)C)cc1` [Compound 79, (2S,4R)-4-hydroxy-1-((R)-2-(3-(6-(3-(2-hydroxyphenyl)-5-methylthieno[2,3-c]pyridazin-6-yl)-2,6-diazaspiro[3.3]heptan-2-yl)isoxazol-5-yl)-3-methylbutanoyl)-N-((S)-1-(4-(4-methylthiazol-5-yl)phenyl)ethyl)pyrrolidine-2-carboxamide], on HiBit-BRM fusion protein, the “BRM HiBit Degradation Maximum (%)” value is reported as “A (“A” indicates maximum degradation ≥75%)” and the DC50 was less than 10 nM. Further, the Dmax in experiment [1] was greater than 50%.
Take `Cc1ncsc1-c1ccc([C@H](C)NC(=O)[C@@H]2C[C@@H](O)CN2C(=O)[C@@H](c2cc(N3CCN(c4sc5nnc(-c6ccccc6O)cc5c4C)CC3)no2)C(C)C)cc1` [Compound 80, (2S,4R)-4-hydroxy-1-((R)-2-(3-(4-(3-(2-hydroxyphenyl)-5-methylthieno[2,3-c]pyridazin-6-yl)piperazin-1-yl)isoxazol-5-yl)-3-methylbutanoyl)-N-((S)-1-(4-(4-methylthiazol-5-yl)phenyl)ethyl)pyrrolidine-2-carboxamide]: at HiBit-BRM fusion protein, the “BRM HiBit Degradation Maximum (%)” value was “A (“A” indicates maximum degradation ≥75%)” and the DC50 is greater than 10 nM. The Dmax in experiment [1] is less than 50%.
As for `Cc1ncsc1-c1ccc([C@H](C)NC(=O)[C@@H]2C[C@@H](O)CN2C(=O)[C@@H](c2cc(N3CCC4(CC[C@H](c5sc6nnc(-c7ccccc7O)cc6c5C)C4)CC3)no2)C(C)C)cc1` [Compound 81, (2S,4R)-4-hydroxy-1-((R)-2-(3-((S)-2-(3-(2-hydroxyphenyl)-5-methylthieno[2,3-c]pyridazin-6-yl)-8-azaspiro[4.5]decan-8-yl)isoxazol-5-yl)-3-methylbutanoyl)-N-((S)-1-(4-(4-methylthiazol-5-yl)phenyl)ethyl)pyrrolidine-2-carboxamide], on HiBit-BRM fusion protein, the “BRM HiBit Degradation Maximum (%)” value is “A (“A” indicates maximum degradation ≥75%)” and the DC50 is greater than 10 nM. Also, the Dmax in experiment [1] is less than 50%.
With `Cc1ncsc1-c1ccc([C@H](C)NC(=O)[C@@H]2C[C@@H](O)CN2C(=O)[C@@H](c2cc(-c3cnc(N4CC[C@@H](c5cc6nnc(-c7ccccc7O)cc6s5)C4)nc3)no2)C(C)C)cc1` [Compound 82, (2S,4R)-4-hydroxy-1-((R)-2-(3-(2-((R)-3-(3-(2-hydroxyphenyl)thieno[3,2-c]pyridazin-6-yl)pyrrolidin-1-yl)pyrimidin-5-yl)isoxazol-5-yl)-3-methylbutanoyl)-N-((S)-1-(4-(4-methylthiazol-5-yl)phenyl)ethyl)pyrrolidine-2-carboxamide], at HiBit-BRM fusion protein, the “BRM HiBit Degradation Maximum (%)” value is “A (“A” indicates maximum degradation ≥75%)” and the DC50 is less than 10 nM. Besides, in experiment [1], the Dmax is greater than 50% and the DC50 is greater than 10 nM.
With `Cc1ncsc1-c1ccc([C@H](C)NC(=O)[C@@H]2C[C@@H](O)CN2C(=O)[C@@H](c2cc(-c3ccnc(N4CC[C@@H](c5cc6nnc(-c7ccccc7O)cc6s5)C4)n3)no2)C(C)C)cc1` [Compound 83, (2S,4R)-4-hydroxy-1-((R)-2-(3-(2-((R)-3-(3-(2-hydroxyphenyl)thieno[3,2-c]pyridazin-6-yl)pyrrolidin-1-yl)pyrimidin-4-yl)isoxazol-5-yl)-3-methylbutanoyl)-N-((S)-1-(4-(4-methylthiazol-5-yl)phenyl)ethyl)pyrrolidine-2-carboxamide], at HiBit-BRM fusion protein, the “BRM HiBit Degradation Maximum (%)” value is on record as “A (“A” indicates maximum degradation ≥75%)” and the DC50 is greater than 10 nM. The Dmax in experiment [1] was less than 50%.
Turning to `Cc1ncsc1-c1ccc([C@H](C)NC(=O)[C@@H]2C[C@@H](O)CN2C(=O)[C@@H](c2cc(-c3cnc(N4CCC(c5sc6nnc(-c7ccccc7O)cc6c5C5CC5)CC4)nc3)no2)C(C)C)cc1` [Compound 84, (2S,4R)-1-((R)-2-(3-(2-(4-(5-cyclopropyl-3-(2-hydroxyphenyl)thieno[2,3-c]pyridazin-6-yl)piperidin-1-yl)pyrimidin-5-yl)isoxazol-5-yl)-3-methylbutanoyl)-4-hydroxy-N-((S)-1-(4-(4-methylthiazol-5-yl)phenyl)ethyl)pyrrolidine-2-carboxamide], at HiBit-BRM fusion protein, the “BRM HiBit Degradation Maximum (%)” value is “B (“B” indicates maximum degradation ≥50%)” and the DC50 is greater than 10 nM. Further, the Dmax in experiment [1] is less than 50%.
With `Cc1ncsc1-c1ccc([C@H](C)NC(=O)[C@@H]2C[C@@H](O)CN2C(=O)[C@@H](c2cc(N3CCC4(CCC(c5sc6nnc(-c7ccccc7O)cc6c5C)CC4)CC3)no2)C(C)C)cc1` [Compound 85, (2S,4R)-4-hydroxy-1-((R)-2-(3-(9-(3-(2-hydroxyphenyl)-5-methylthieno[2,3-c]pyridazin-6-yl)-3-azaspiro[5.5]undecan-3-yl)isoxazol-5-yl)-3-methylbutanoyl)-N-((S)-1-(4-(4-methylthiazol-5-yl)phenyl)ethyl)pyrrolidine-2-carboxamide], on HiBit-BRM fusion protein, the “BRM HiBit Degradation Maximum (%)” value is given as “A (“A” indicates maximum degradation ≥75%)” and the DC50 is greater than 10 nM. For the same compound, the Dmax in experiment [1] was less than 50%.
On to `Cc1ncsc1-c1ccc([C@H](C)NC(=O)[C@@H]2C[C@@H](O)CN2C(=O)[C@@H](c2cc(-c3ccnc(N4CC[C@H](c5cc6nnc(-c7ccccc7O)cc6s5)C4)n3)no2)C(C)C)cc1` [Compound 86, (2S,4R)-4-hydroxy-1-((R)-2-(3-(2-((S)-3-(3-(2-hydroxyphenyl)thieno[3,2-c]pyridazin-6-yl)pyrrolidin-1-yl)pyrimidin-4-yl)isoxazol-5-yl)-3-methylbutanoyl)-N-((S)-1-(4-(4-methylthiazol-5-yl)phenyl)ethyl)pyrrolidine-2-carboxamide], for which, on HiBit-BRM fusion protein, the “BRM HiBit Degradation Maximum (%)” value is on record as “A (“A” indicates maximum degradation ≥75%)” and the DC50 was greater than 100 nM. Further, the Dmax in experiment [1] is less than 50%.
As to `Cc1ncsc1-c1ccc([C@H](C)NC(=O)[C@@H]2C[C@@H](O)CN2C(=O)[C@@H](c2cc(N3CC4(CC(c5sc6nnc(-c7ccccc7O)cc6c5C5CC5)C4)C3)no2)C(C)C)cc1` [Compound 87, (2S,4R)-1-[(2R)-2-(3-{6-[5-cyclopropyl-3-(2-hydroxyphenyl)thieno[2,3-c]pyridazin-6-yl]-2-azaspiro[3.3]heptan-2-yl}-1,2-oxazol-5-yl)-3-methylbutanoyl]-4-hydroxy-N-[(1S)-1-[4-(4-methyl-1,3-thiazol-5-yl)phenyl]ethyl]pyrrolidine-2-carboxamide], at HiBit-BRM fusion protein, the “BRM HiBit Degradation Maximum (%)” value is reported as “A (“A” indicates maximum degradation ≥75%)” and the DC50 is less than 10 nM. Also, the Dmax in experiment [1] was less than 50%.
Regarding `Cc1ncsc1-c1ccc([C@H](C)NC(=O)[C@@H]2C[C@@H](O)CN2C(=O)[C@@H](c2cc(N3CC4(CCC(c5sc6nnc(-c7ccccc7O)cc6c5C)CC4)C3)no2)C(C)C)cc1` [Compound 88, (2S,4R)-4-hydroxy-1-((R)-2-(3-(7-(3-(2-hydroxyphenyl)-5-methylthieno[2,3-c]pyridazin-6-yl)-2-azaspiro[3.5]nonan-2-yl)isoxazol-5-yl)-3-methylbutanoyl)-N-((S)-1-(4-(4-methylthiazol-5-yl)phenyl)ethyl)pyrrolidine-2-carboxamide], at HiBit-BRM fusion protein, the “BRM HiBit Degradation Maximum (%)” value is “A (“A” indicates maximum degradation ≥75%)” and the DC50 is less than 10 nM. Further, in experiment [1], the Dmax was greater than 75% and the DC50 was greater than 10 nM.
Take `Cc1ncsc1-c1ccc([C@H](C)NC(=O)[C@@H]2C[C@@H](O)CN2C(=O)[C@@H](c2cc(N3CC4(CCC(c5cc6cc(-c7ccccc7O)nnc6s5)CC4)C3)no2)C(C)C)cc1` [Compound 89, (2S,4R)-4-hydroxy-1-((R)-2-(3-(7-(3-(2-hydroxyphenyl)thieno[2,3-c]pyridazin-6-yl)-2-azaspiro[3.5]nonan-2-yl)isoxazol-5-yl)-3-methylbutanoyl)-N-((S)-1-(4-(4-methylthiazol-5-yl)phenyl)ethyl)pyrrolidine-2-carboxamide]: at HiBit-BRM fusion protein, the “BRM HiBit Degradation Maximum (%)” value is “A (“A” indicates maximum degradation ≥75%)” and the DC50 was less than 10 nM. In addition, in experiment [1], the Dmax was greater than 75% and the DC50 is greater than 10 nM.
For `COc1cc(-c2cc([C@H](C(=O)N3C[C@H](O)C[C@H]3C(=O)N[C@@H](C)c3ccc(-c4scnc4C)cc3)C(C)C)on2)cnc1N1CCC(c2sc3nnc(-c4ccccc4O)cc3c2C)CC1` [Compound 90, (2S,4R)-4-hydroxy-1-((R)-2-(3-(6-(4-(3-(2-hydroxyphenyl)-5-methylthieno[2,3-c]pyridazin-6-yl)piperidin-1-yl)-5-methoxypyridin-3-yl)isoxazol-5-yl)-3-methylbutanoyl)-N-((S)-1-(4-(4-methylthiazol-5-yl)phenyl)ethyl)pyrrolidine-2-carboxamide], on HiBit-BRM fusion protein, the “BRM HiBit Degradation Maximum (%)” value is recorded as “A (“A” indicates maximum degradation ≥75%)” and the DC50 was less than 10 nM. In experiment [1], the Dmax is less than 50%.
